Source: patent US9913921B2, “Pretargeting kit for imaging or therapy comprising a trans-cyclooctene dienophile and a diene” (TAGWORKS PHARMACEUTICALS B.V., priority 2011, dated 2018)
Values belong to the compound of their own block, whether it stands above or below them.

What was measured:
[1] = Hydrolytic stability tests of tetrazines; type: physicochemical; conditions: PBS buffer, 20° C.
[2] = Reactivity of tetrazines towards trans-cyclooct-4-ene-1-ol (minor isomer), competition experiment; conditions: reference 3-(5-acetamido-2-pyridyl)-6-(2-pyridyl)-1,2,4,5-tetrazine
Method: A competition experiment was performed to determine the reactivity ratio of a specific tetrazine and 3-(5-acetamido-2-pyridyl)-6-(2-pyridyl)-1,2,4,5-tetrazine (that was chosen as the reference tetrazine), in the inverse-electron demand Diels-Alder reaction with trans-cyclooct-4-ene-1-ol (minor isomer).
To acetonitrile (0.100 mL) was added 5 μL of a solution of the specific tetrazine in DMSO (25 mM) and 5 μL, of a solution of the reference tetrazine in DMSO (25 mM). This mixture was diluted with water (0.9 mL), and the absolute amounts of both tetrazines was determined by HPLC-MS/PDA analysis. Subsequently, a solution of trans-cyclooct-4-ene-1-ol (minor isomer) in DMSO (25 μL, 2.5 mM) was slowly added, and the mixture was stirred for 5 min. Again, the absolute amounts of both tetrazines was determined by HPLC-MS/PDA analysis, and conversions for both tetrazines was calculated. From these conversions, the reactivity ratio (R=k2,TCO/k2,Ref) of both tetrazines was calculated using the mathematical procedure from Ingold and Shaw (J. Chem. Soc., 1927, 2918-2926).

[3] = Stability of trans-cyclooctene derivatives; type: physicochemical; conditions: PBS buffer, 20° C., in the dark, estimation
Method: 10 μL of a solution of the specific trans-cyclooctene derivative in dioxane (25 mM) was diluted with PBS buffer (3 mL), and this solution was stored at 20° C. in the dark. The faith of the TCO compound was monitored by HPLC-MS analysis, and an estimation of the half-life time was made.

[4] = Reactivity of trans-cyclooctene derivatives towards bis(2-pyridyl)-1,2,4,5-tetrazine, competition experiment; conditions: for reactivity towards tetrazines compared to minor isomer of trans-cyclooct-4-ene-1-ol: in words; for Reactivity ratio (R = k2,TCO/k2,Ref): reference trans-cyclooct-4-ene-1-ol (minor isomer)
Method: A competition experiment was performed to determine the reactivity ratio of a specific trans-cyclooctene derivative and trans-cyclooct-4-ene-1-ol (minor isomer) (that was chosen as the reference trans-cyclooctene), in the inverse-electron demand Diels-Alder reaction with bis(2-pyridyl)-1,2,4,5-tetrazine.
This mixture was diluted with water (0.45 mL). Subsequently, a solution of bis(2-pyridyl)-1,2,4,5-tetrazine (6.25*10^−8 mol) in a mixture of acetonitrile (0.05 mL) and water (0.45 mL) was slowly added while stirring vigorously. After addition, the mixture was stirred for an additional 5 min. The conversion of both trans-cyclooctene derivatives was determined by HPLC-MS/PDA analysis, and from these conversions, the reactivity ratio (R=k2,TCO/k2,Ref) of the specific trans-cyclooctene derivative was calculated using the mathematical procedure from Ingold and Shaw (J. Chem. Soc., 1927, 2918-2926).

[5] = Reaction of trans-cyclooctene β-lactam derivative with tetrazine; conditions: equimolar (6.25*10^−8 mol) in water, immediate discoloration, HPLC-MS
Method: (§1) To a solution of 3-(5-acetamido-2-pyridyl)-6-(2-pyridyl)-1,2,4,5-tetrazine (6.25*10^−8 mol) in water (1 mL) was added the trans-cyclooctene β-lactam derivative 25 (6.25*10^−8 mol). […] This was confirmed by HPLC-MS analysis: complete disappearance of the tetrazine signal and formation of the rDA adduct with m/z=475.33 (M+H^+).

[6] = as above; conditions: equimolar (6.25*10^−8 mol) in water, immediate discoloration, HPLC-MS; remark: listed apart in the source
Method: as §1, with “3-(5-butyramido-2-pyridyl)-6-(2-pyrimidyl)-1,2,4,5-tetrazine” for “3-(5-acetamido-2-pyridyl)-6-(2-pyridyl)-1,2,4,5-tetrazine”, “m/z=504.42” for “m/z=475.33”

[7] = as above; conditions: equimolar (6.25*10^−8 mol) in water, immediate discoloration, HPLC-MS; remark: listed apart in the source
Method: as §1, with “(4-(1,2,4,5-tetrazin-3-yl)phenyl)methanamine” for “3-(5-acetamido-2-pyridyl)-6-(2-pyridyl)-1,2,4,5-tetrazine”, “m/z=369.17” for “m/z=475.33”

[8] = as above; conditions: equimolar (6.25*10^−8 mol) in water, immediate discoloration, HPLC-MS; remark: listed apart in the source
[9] = as above; conditions: tetrazine suspension in water
Method: as §1, with “suspension” for “solution”, “3,6-diphenyl-1,2,4,5-tetrazine” for “3-(5-acetamido-2-pyridyl)-6-(2-pyridyl)-1,2,4,5-tetrazine”, “m/z=416.42” for “m/z=475.33”

Structure (SMILES): c1cnc(-c2nnc(-c3ncccn3)nn2)nc1
half-life at 83 µM [1]: 4.5 h
Reactivity ratio (R = k2,TZ/k2,Ref) [2]: 0.12

Structure (SMILES): O=C(O)C1C2CC/C=C/CCC21 (stereo not drawn) [compound 5, (E-exo)-Bicyclo[6.1.0]non-4-ene-9-carboxylic acid]
reactivity towards tetrazines compared to minor isomer of trans-cyclooct-4-ene-1-ol [4]: markedly increased reactivity
Reactivity ratio (R = k2,TCO/k2,Ref) ([4]; listed as drawing 43): 20.0

Structure (SMILES): O=C(O)CN1C(=O)C2CC/C=C/CCC21 (stereo not shown) [compound 25, (E)-2-(10-oxo-9-azabicyclo[6.2.0]dec-4-en-9-yl)acetic acid]
half-life at 83 µM [3]: ~24 h
reactivity towards tetrazines compared to minor isomer of trans-cyclooct-4-ene-1-ol [4]: markedly increased reactivity
Reactivity ratio (R = k2,TCO/k2,Ref) [4]: 5.4
reaction with tetrazine [5]: quantitative reaction
reaction with tetrazine [6]: quantitative reaction
reaction with tetrazine [7]: quantitative reaction
reaction with tetrazine [8]: quantitative reaction
reaction with tetrazine ([9]; equimolar (6.25*10^−8 mol), HPLC-MS): quantitative reaction
time until pink, turbid mixture became clear and colorless [9]: ≤ 15 min

Second part, led by results:

half-life at 83 µM [3]: > 72 h
Structure (SMILES): O=C(O)C1C2CC/C=C/CCC21 (stereo not drawn) [compound 4, (E-endo)-Bicyclo[6.1.0]non-4-ene-9-carboxylic acid]
reactivity towards tetrazines compared to minor isomer of trans-cyclooct-4-ene-1-ol [4]: markedly increased reactivity
Reactivity ratio (R = k2,TCO/k2,Ref) ([4]; listed as drawing 42): 13.1

half-life at 83 µM [3]: > 72 h
Structure (SMILES): O=C1N[C@H]2CC/C=C/CC[C@H]2N1 [compound 40, Cis (E)-3,3a,4,5,9,9a-hexahydro-1H-cycloocta[d]imidazol-2(8H)-one]
reactivity towards tetrazines compared to minor isomer of trans-cyclooct-4-ene-1-ol [4]: markedly increased reactivity
Reactivity ratio (R = k2,TCO/k2,Ref) [4]: 7.3
